Test system: MV-4-11 cells
Assay: Gene expression microarray analysis (Affymetrix PrimeView) and GSEA
Format: cell-based, human
Design: RFU PODN (11730768_x_at) / Fold change /veh PODN (11730768_x_at) / RFU LINC00158 (11744669_a_at) / Fold change /veh LINC00158 (11744669_a_at) / RFU DUSP10 (11751237_a_at) / Fold change /veh DUSP10 (11751237_a_at) / RFU ID3 (11757404_x_at) / Fold change /veh ID3 (11757404_x_at) / RFU PLEKHG5 (11737974_s_at) / Fold change /veh PLEKHG5 (11737974_s_at) / RFU LRRC4B (11730491_at) / Fold change /veh LRRC4B (11730491_at) / RFU GIMAP4 (11747438_a_at) / Fold change /veh GIMAP4 (11747438_a_at) / RFU KRT8 (11758183_x_at) / Fold change /veh KRT8 (11758183_x_at) / RFU CNN1 (11734310_a_at) / Fold change /veh CNN1 (11734310_a_at) / RFU VPS37D (11726825_at) / Fold change /veh VPS37D (11726825_at) / RFU C10orf10 (11716522_x_at) / Fold change /veh C10orf10 (11716522_x_at) / RFU KIR2DL2 /// KIR2DL4 /// KIR2DL5A /// KIR2DL5B /// KIR2DS1 /// KIR2DS2 /// KIR2DS3 /// KIR2DS4 /// KIR3DL3 /// KIR3DL3 /// KIR3DS1 (11738374_at) / Fold change /veh KIR2DL2 /// KIR2DL4 /// KIR2DL5A /// KIR2DL5B /// KIR2DS1 /// KIR2DS2 /// KIR2DS3 /// KIR2DS4 /// KIR3DL3 /// KIR3DL3 /// KIR3DS1 (11738374_at) / RFU C1QL1 (11718748_at) / Fold change /veh C1QL1 (11718748_at) / RFU TMPRSS4 (11747572_a_at) / Fold change /veh TMPRSS4 (11747572_a_at) / RFU HAMP (11756126_x_at) / Fold change /veh HAMP (11756126_x_at) / RFU RNFT2 (11725882_a_at) / Fold change /veh RNFT2 (11725882_a_at) / RFU NR4A2 (11747474_a_at) / Fold change /veh NR4A2 (11747474_a_at) / RFU ABCC12 (11746883_a_at) / Fold change /veh ABCC12 (11746883_a_at) / RFU TMEM136 (11760407_x_at) / Fold change /veh TMEM136 (11760407_x_at) / RFU CLDN22 /// WWC2 (11732394_at) / Fold change /veh CLDN22 /// WWC2 (11732394_at) / RFU HLA-DPB1 (11760878_x_at) / Fold change /veh HLA-DPB1 (11760878_x_at) / RFU SPINT1 (11716480_a_at) / Fold change /veh SPINT1 (11716480_a_at) / RFU GAP43 (11754022_s_at) / Fold change /veh GAP43 (11754022_s_at) / RFU A4GNT (11735810_at) / Fold change /veh A4GNT (11735810_at) / RFU PRB3 (11715151_x_at) / Fold change /veh PRB3 (11715151_x_at) / RFU TUBB4B (11761932_at) / Fold change /veh TUBB4B (11761932_at) / RFU CAPN14 (11732068_a_at) / Fold change /veh CAPN14 (11732068_a_at) / RFU TMCC2 (11721928_a_at) / Fold change /veh TMCC2 (11721928_a_at) / RFU IRGQ (11745062_a_at) / Fold change /veh IRGQ (11745062_a_at) / RFU FAM174B (11720279_a_at) / Fold change /veh FAM174B (11720279_a_at) / RFU TMPRSS4 (11748680_a_at) / Fold change /veh TMPRSS4 (11748680_a_at) / RFU FAM212B (11763350_a_at) / Fold change /veh FAM212B (11763350_a_at) / RFU PLEKHG5 (11743358_a_at) / Fold change /veh PLEKHG5 (11743358_a_at) / RFU ZSCAN30 (11745921_a_at) / Fold change /veh ZSCAN30 (11745921_a_at) / RFU CMKLR1 (11741424_a_at) / Fold change /veh CMKLR1 (11741424_a_at) / RFU LOC101060620 /// MAPK8IP1 (11723275_at) / Fold change /veh LOC101060620 /// MAPK8IP1 (11723275_at) / RFU SPTSSB (11747773_x_at) / Fold change /veh SPTSSB (11747773_x_at) / RFU PRSS12 (11739890_at) / Fold change /veh PRSS12 (11739890_at) / RFU BIN1 (11741810_x_at) / Fold change /veh BIN1 (11741810_x_at) / RFU WNT11 (11732464_a_at) / Fold change /veh WNT11 (11732464_a_at) / RFU C10orf10 (11716521_a_at) / Fold change /veh C10orf10 (11716521_a_at) / RFU C5orf56 (11738089_at) / Fold change /veh C5orf56 (11738089_at) / RFU CYB561 (11721691_x_at) / Fold change /veh CYB561 (11721691_x_at) / RFU ANKRD19P (11752326_a_at) / Fold change /veh ANKRD19P (11752326_a_at) / RFU OR2T12 /// OR2T33 /// OR2T8 (11738714_s_at) / Fold change /veh OR2T12 /// OR2T33 /// OR2T8 (11738714_s_at) / RFU VCAN (11748164_a_at) / Fold change /veh VCAN (11748164_a_at) / RFU JSRP1 (11732532_at) / Fold change /veh JSRP1 (11732532_at) / RFU KRTAP10-11 (11738290_x_at) / Fold change /veh KRTAP10-11 (11738290_x_at) / RFU MYO3A (11730013_a_at) / Fold change /veh MYO3A (11730013_a_at) / RFU EBF3 (11725865_a_at) / Fold change /veh EBF3 (11725865_a_at) / RFU CAMK2N1 (11719241_x_at) / Fold change /veh CAMK2N1 (11719241_x_at) / RFU C5orf56 (11738088_a_at) / Fold change /veh C5orf56 (11738088_a_at) / RFU OLFML3 (11715873_a_at) / Fold change /veh OLFML3 (11715873_a_at) / RFU LOC100653217 /// NTM (11731650_a_at) / Fold change /veh LOC100653217 /// NTM (11731650_a_at) / RFU MAPK11 (11762145_a_at) / Fold change /veh MAPK11 (11762145_a_at) / RFU FIZ1 (11724087_x_at) / Fold change /veh FIZ1 (11724087_x_at) / RFU OASL (11726364_x_at) / Fold change /veh OASL (11726364_x_at) / RFU SOX15 (11748057_x_at) / Fold change /veh SOX15 (11748057_x_at) / RFU CD79A (11719716_a_at) / Fold change /veh CD79A (11719716_a_at) / RFU HIST1H1D (11736915_at) / Fold change /veh HIST1H1D (11736915_at) / RFU CASKIN2 (11723855_a_at) / Fold change /veh CASKIN2 (11723855_a_at) / RFU LOC730098 (11760151_x_at) / Fold change /veh LOC730098 (11760151_x_at) / RFU OR4N2 (11742367_at) / Fold change /veh OR4N2 (11742367_at) / RFU PRRT2 (11749266_a_at) / Fold change /veh PRRT2 (11749266_a_at) / RFU SNX32 (11753110_a_at) / Fold change /veh SNX32 (11753110_a_at) / RFU CDHR5 (11726645_a_at) / Fold change /veh CDHR5 (11726645_a_at) / RFU RCAN1 (11760418_a_at) / Fold change /veh RCAN1 (11760418_a_at) / RFU FAM167A (11723789_a_at) / Fold change /veh FAM167A (11723789_a_at) / RFU FAM26E (11764081_at) / Fold change /veh FAM26E (11764081_at) / RFU ISYNA1 (11749810_s_at) / Fold change /veh ISYNA1 (11749810_s_at) / RFU ACY1 (11761880_at) / Fold change /veh ACY1 (11761880_at) / RFU 11764098_at / Fold change /veh 11764098_at / RFU SAMD14 (11745864_x_at) / Fold change /veh SAMD14 (11745864_x_at) / RFU NPB (11741838_a_at) / Fold change /veh NPB (11741838_a_at) / RFU TMPRSS6 (11731388_a_at) / Fold change /veh TMPRSS6 (11731388_a_at) / RFU KRTAP10-2 (11738614_at) / Fold change /veh KRTAP10-2 (11738614_at) / RFU ARHGAP8 /// PRR5-ARHGAP8 (11727945_x_at) / Fold change /veh ARHGAP8 /// PRR5-ARHGAP8 (11727945_x_at) / RFU KRTAP5-7 /// NADSYN1 (11734609_at) / Fold change /veh KRTAP5-7 /// NADSYN1 (11734609_at) / RFU RASL12 (11751679_a_at) / Fold change /veh RASL12 (11751679_a_at) / RFU CDKN2B (11736163_a_at) / Fold change /veh CDKN2B (11736163_a_at) / RFU PRF1 (11729649_at) / Fold change /veh PRF1 (11729649_at) / RFU, ZNF638 /// ZNF638-IT1 / Fold change vs veh, ZNF638 /// ZNF638-IT1 / RFU, PANK3 / Fold change vs veh, PANK3 / RFU, SH3YL1 / Fold change vs veh, SH3YL1 / RFU, ZEB2 / Fold change vs veh, ZEB2 / RFU, NRIP1 / Fold change vs veh, NRIP1 / RFU, PTTG1IP / Fold change vs veh, PTTG1IP / RFU, CAPN2 / Fold change vs veh, CAPN2 / RFU, MED14 / Fold change vs veh, MED14 / RFU, SNORA58 / Fold change vs veh, SNORA58 / RFU, C1orf63 / Fold change vs veh, C1orf63 / RFU, LRRFIP1 / Fold change vs veh, LRRFIP1 / RFU, NDUFAF7 / Fold change vs veh, NDUFAF7 / RFU, SLC12A2 / Fold change vs veh, SLC12A2 / RFU, IBTK / Fold change vs veh, IBTK / RFU, ESF1 / Fold change vs veh, ESF1 / Fold change vs veh, TMEM50B / RFU, TAOK1 / Fold change vs veh, TAOK1 / RFU, ACBD3 / Fold change vs veh, ACBD3 / RFU, TMA16 / Fold change vs veh, TMA16 / RFU, RWDD3 / Fold change vs veh, RWDD3 / RFU, BCAT1 / Fold change vs veh, BCAT1 / RFU, EDEM3 / Fold change vs veh, EDEM3 / RFU, TMEM33 / Fold change vs veh, TMEM33 / RFU, WDR75 / Fold change vs veh, WDR75 / RFU, AHCTF1 / Fold change vs veh, AHCTF1 / RFU, TFRC / Fold change vs veh, TFRC / RFU, ZDHHC17 / Fold change vs veh, ZDHHC17 / RFU, NOM1 / Fold change vs veh, NOM1 / RFU, ARL8B / Fold change vs veh, ARL8B / RFU, ZBTB11 / Fold change vs veh, ZBTB11 / RFU, TAMM41 / Fold change vs veh, TAMM41 / RFU, KIAA1704 /// LOC100996395 / Fold change vs veh, KIAA1704 /// LOC100996395 / RFU, ING1 / Fold change vs veh, ING1 / RFU, TRMT61B / Fold change vs veh, TRMT61B / RFU, FUBP3 / Fold change vs veh, FUBP3 / RFU, TP53 / Fold change vs veh, TP53 / RFU, TNKS2 / Fold change vs veh, TNKS2 / RFU, ZFP14 / Fold change vs veh, ZFP14 / RFU, ACTR2 / Fold change vs veh, ACTR2 / RFU, PPP3R1 / Fold change vs veh, PPP3R1 / RFU, PIK3R1 / Fold change vs veh, PIK3R1 / RFU, HNRNPA1 / Fold change vs veh, HNRNPA1 / RFU, RNF170 / Fold change vs veh, RNF170 / RFU, ZNF28 / Fold change vs veh, ZNF28 / RFU, RNGTT / Fold change vs veh, RNGTT / RFU, OGT / Fold change vs veh, OGT / RFU, BRD1 / Fold change vs veh, BRD1 / RFU, MARS / Fold change vs veh, MARS / RFU, ZNF655 / Fold change vs veh, ZNF655 / RFU, FAHD1 / Fold change vs veh, FAHD1 / RFU, BDP1 / Fold change vs veh, BDP1 / RFU, LRRCC1 / Fold change vs veh, LRRCC1 / RFU, ARID1A / Fold change vs veh, ARID1A / RFU, ZNF146 / Fold change vs veh, ZNF146 / RFU, ZNF330 / Fold change vs veh, ZNF330 / RFU, GPN3 / Fold change vs veh, GPN3 / RFU, C9orf123 / Fold change vs veh, C9orf123 / RFU, N4BP2L2 / Fold change vs veh, N4BP2L2 / RFU, ARFIP1 / Fold change vs veh, ARFIP1 / RFU, FAM179B / Fold change vs veh, FAM179B / RFU, BCL10 / Fold change vs veh, BCL10 / RFU, UHRF1BP1L / Fold change vs veh, UHRF1BP1L / RFU, BET1 / Fold change vs veh, BET1 / RFU, CNOT2 / Fold change vs veh, CNOT2 / RFU, ZNF268 / Fold change vs veh, ZNF268 / Fold change vs veh, ZNF507 / RFU, DGCR2 / Fold change vs veh, DGCR2 / RFU, WDSUB1 / Fold change vs veh, WDSUB1 / Fold change vs veh, HSP90B1 /// MIR3652 / RFU, ADSS / Fold change vs veh, ADSS / RFU, GK / Fold change vs veh, GK / RFU, ZNF148 / Fold change vs veh, ZNF148 / RFU, TAF9 / Fold change vs veh, TAF9 / RFU, SLC1A5 / Fold change vs veh, SLC1A5 / RFU, SLMO2 / Fold change vs veh, SLMO2 / RFU, ABCC4 / Fold change vs veh, ABCC4 / RFU, LOC101060439 /// RAP1B / Fold change vs veh, LOC101060439 /// RAP1B / RFU, RFX7 / Fold change vs veh, RFX7 / RFU, GTPBP10 / Fold change vs veh, GTPBP10 / RFU, CNEP1R1 / Fold change vs veh, CNEP1R1 / RFU, BIVM-ERCC5 /// ERCC5 / Fold change vs veh, BIVM-ERCC5 /// ERCC5 / RFU, ILF3 / Fold change vs veh, ILF3 / RFU 11762660_at / Fold change /veh 11762660_at / RFU VCAN (11757783_s_at) / Fold change /veh VCAN (11757783_s_at) / RFU DDX43 (11728927_at) / Fold change /veh DDX43 (11728927_at) / RFU KRT8 (11758188_x_at) / Fold change /veh KRT8 (11758188_x_at) / RFU NKD1 (11759106_at) / Fold change /veh NKD1 (11759106_at) / RFU SRD5A1 (11742802_a_at) / Fold change /veh SRD5A1 (11742802_a_at) / RFU TPSAB1 /// TPSB2 (11721975_s_at) / Fold change /veh TPSAB1 /// TPSB2 (11721975_s_at) / RFU GSTM3 (11746129_a_at) / Fold change /veh GSTM3 (11746129_a_at) / RFU IL23R (11737362_x_at) / Fold change /veh IL23R (11737362_x_at) / RFU TMEM51 (11727254_a_at) / Fold change /veh TMEM51 (11727254_a_at) / RFU PIWIL2 (11732686_x_at) / Fold change /veh PIWIL2 (11732686_x_at) / RFU ORM1 (11744905_x_at) / Fold change /veh ORM1 (11744905_x_at) / RFU CCDC152 (11743942_at) / Fold change /veh CCDC152 (11743942_at) / RFU ECM1 (11717891_a_at) / Fold change /veh ECM1 (11717891_a_at) / RFU IL23R (11748794_a_at) / Fold change /veh IL23R (11748794_a_at) / RFU TNFAIP8L3 (11732012_x_at) / Fold change /veh TNFAIP8L3 (11732012_x_at) / RFU MBOAT4 (11741988_at) / Fold change /veh MBOAT4 (11741988_at) / RFU 11764193_at / Fold change /veh 11764193_at / RFU TMEM53 (11763286_at) / Fold change /veh TMEM53 (11763286_at) / RFU MAGEB2 (11727129_at) / Fold change /veh MAGEB2 (11727129_at) / RFU TMEM200A (11744735_a_at) / Fold change /veh TMEM200A (11744735_a_at) / RFU CCDC152 (11751479_a_at) / Fold change /veh CCDC152 (11751479_a_at) / RFU FAM211A (11726209_a_at) / Fold change /veh FAM211A (11726209_a_at) / RFU RGS16 (11746705_a_at) / Fold change /veh RGS16 (11746705_a_at) / RFU VCAN (11755009_s_at) / Fold change /veh VCAN (11755009_s_at) / RFU RHOB (11743442_s_at) / Fold change /veh RHOB (11743442_s_at) / RFU RGS16 (11720943_a_at) / Fold change /veh RGS16 (11720943_a_at) / RFU RGS16 (11720944_at) / Fold change /veh RGS16 (11720944_at) / RFU, VPS4B / Fold change vs veh, VPS4B / RFU, CREB1 / Fold change vs veh, CREB1 / RFU, DNAJC13 / Fold change vs veh, DNAJC13 / RFU, GNAQ / Fold change vs veh, GNAQ / RFU, CDK5R1 / Fold change vs veh, CDK5R1 / RFU, ZRANB3 / Fold change vs veh, ZRANB3 / RFU, CUL4A / Fold change vs veh, CUL4A / RFU, CCNY / Fold change vs veh, CCNY / RFU, UFL1 / Fold change vs veh, UFL1 / RFU, COG3 / Fold change vs veh, COG3 / RFU, DIAPH2 / Fold change vs veh, DIAPH2 / RFU, SKA2 / Fold change vs veh, SKA2 / RFU, AFF3 / Fold change vs veh, AFF3 / RFU, LMF1 / Fold change vs veh, LMF1 / RFU, IPO11 / Fold change vs veh, IPO11 / RFU, DFFB / Fold change vs veh, DFFB / RFU, FOXP1 / Fold change vs veh, FOXP1 / RFU, CARD8 / Fold change vs veh, CARD8 / RFU, STRN3 / Fold change vs veh, STRN3 / RFU, ADK / Fold change vs veh, ADK / RFU, RASSF2 / Fold change vs veh, RASSF2 / RFU, WIPF1 / Fold change vs veh, WIPF1 / RFU, LARP1B / Fold change vs veh, LARP1B / RFU, RASA1 / Fold change vs veh, RASA1 / RFU, RB1 / Fold change vs veh, RB1 / RFU, PPFIA1 / Fold change vs veh, PPFIA1 / RFU, MAT2A / Fold change vs veh, MAT2A / RFU, CCT5 / Fold change vs veh, CCT5 / RFU, WDR92 / Fold change vs veh, WDR92 / RFU, CUX1 / Fold change vs veh, CUX1 / RFU, TTC7A / Fold change vs veh, TTC7A / RFU, TMEM135 / Fold change vs veh, TMEM135 / RFU, DEPTOR / Fold change vs veh, DEPTOR / RFU, CPM / Fold change vs veh, CPM / RFU, DNAJB6 / Fold change vs veh, DNAJB6 / RFU, CACNA2D3 / Fold change vs veh, CACNA2D3 / RFU, DTX4 / Fold change vs veh, DTX4 / RFU, TFCP2 / Fold change vs veh, TFCP2 / RFU, GMCL1 /// GMCL1P1 / Fold change vs veh, GMCL1 /// GMCL1P1 / RFU, AEBP2 / Fold change vs veh, AEBP2 / RFU, SNHG1 /// SNORD22 /// SNORD25 /// SNORD26 /// SNORD27 /// SNORD28 /// SNORD29 /// SNORD31 / Fold change vs veh, SNHG1 /// SNORD22 /// SNORD25 /// SNORD26 /// SNORD27 /// SNORD28 /// SNORD29 /// SNORD31 / Fold change (Aza/veh), C12orf56 (ProbeSet 11735607_a_at) / Fold change (ACY-1035/veh), C12orf56 (ProbeSet 11735607_a_at) / Fold change (Aza/veh), FGFR1OP (ProbeSet 11751329_s_at) / Fold change (ACY-1035/veh), FGFR1OP (ProbeSet 11751329_s_at) / Fold change (Aza/veh), VPS36 (ProbeSet 11739960_a_at) / Fold change (ACY-1035/veh), VPS36 (ProbeSet 11739960_a_at) / RFU SYPL1 (11715823_x_at) / Fold change /veh SYPL1 (11715823_x_at) / RFU IGFBP7 (11715501_s_at) / Fold change /veh IGFBP7 (11715501_s_at) / RFU REEP3 (11722064_at) / Fold change /veh REEP3 (11722064_at) / RFU IGLL1 (11728026_x_at) / Fold change /veh IGLL1 (11728026_x_at): dose or concentration left out as unconfirmed
Conditions: MV-4-11 cells, 48 hours

For `Nc1ccc(-c2cccs2)cc1NC(=O)c1ccc2c(c1)cc(C1CC1)n2CCN1CCOCC1` [ACY-1035], the “Fold change /veh CCDC152 (11743942_at)” value was 1.01.
